This is an account of results in patent US5447719A, “β-glucuronidase inhibitor” (priority 1991, dated 1995).

The target of one series is T1, β-glucuronidase (Escherichia coli, UniProt P05804).
T1 construct: purchased Sigma Chemical Co
Put plainly: β-glucuronidase inhibition: residual activity (production of formula III compound from formula II compound, HPLC). The format is biochemical. Conditions: formula II substrate 100 nmol/ml, pH 6.8, 37° C., 20 min; for remaining activity at 0.0167 µM: 16.7 nM; for remaining activity at 0.0333 µM: 33.3 nM; for remaining activity at 0.1667 µM: 166.7 nM. The protocol: β-glucuronidase (manufactured by Sigma Chemical Co.) derived from Escherichia coli was added to a reaction solution comprising 50 μl of potassium phosphate buffer (pH: 6.8), a solution of a compound (100 nmol/ml) represented by the formula II and produced by Reference Example which will be described later and a specimen, and a reaction was allowed to proceed at 37° C. for 20 min. A glycine buffer (pH: 10.4) was added to terminate the reaction. 10 μl of the reaction mixture and 100 μl of an internal standard (camptothecin) solution were added to 1 ml of a 0.01N aqueous hydrochloric acid solution, and the mixture was applied to Bond Elute C18 (Analytichem), washed with water and 0.01N aqueous hydrochloric acid solution. Elution was effected with acetonitrile/water (1:2). 100 μl of the eluate obtained by elution with acetonitrile/water (1:2) was analyzed by high performance liquid chromatography (HPLC) under the following conditions, and the β-glucuronidase activity was calculated by using the amount of production of the compound represented by the formula III as an indication.
Apparatus: high performance liquid chromatograph HLC-803D manufactured by Toyo Soda
Analytical column: Tosoh ODS-80TM 250×4.6 mm (I.D.)
Thermostatic chamber of column: Tosoh CO-8011 40° C.
Guard column: Tosoh TSKguradgel ODS-120T
Detector: Shimazu Fluorescence HPLCMonitor RF-530
Detection wavelength: Ex380nm Em556nm
Autosampler: Tosoh AS-8000
Eluent: acetonitrile/water (1:2)

In a further series the test system is bone marrow. Conditions: cited from earlier work.

In general, remaining activity refers to the share of the control activity or signal that is left under treatment.

T1 sequence (P05804 whole entry): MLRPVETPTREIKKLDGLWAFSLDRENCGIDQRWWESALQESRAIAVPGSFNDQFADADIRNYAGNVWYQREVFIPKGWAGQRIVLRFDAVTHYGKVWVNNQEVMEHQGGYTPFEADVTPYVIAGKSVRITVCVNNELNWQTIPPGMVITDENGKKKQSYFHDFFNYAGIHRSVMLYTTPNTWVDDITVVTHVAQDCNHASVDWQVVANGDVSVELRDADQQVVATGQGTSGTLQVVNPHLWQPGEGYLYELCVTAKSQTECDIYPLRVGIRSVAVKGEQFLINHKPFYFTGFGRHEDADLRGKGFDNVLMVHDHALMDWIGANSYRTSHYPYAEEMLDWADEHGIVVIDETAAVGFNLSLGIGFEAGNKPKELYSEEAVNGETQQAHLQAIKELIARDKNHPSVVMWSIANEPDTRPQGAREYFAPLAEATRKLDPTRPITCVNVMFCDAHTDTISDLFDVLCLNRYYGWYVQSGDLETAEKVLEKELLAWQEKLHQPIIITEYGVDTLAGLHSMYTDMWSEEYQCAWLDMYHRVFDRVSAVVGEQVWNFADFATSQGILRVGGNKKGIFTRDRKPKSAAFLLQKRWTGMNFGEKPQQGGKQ

At β-glucuronidase, `O=C(O)[C@H]1O[C@@H](Oc2cc3oc(-c4ccccc4)cc(=O)c3c(O)c2O)[C@H](O)[C@@H](O)[C@@H]1O` [Baicalin, baicalin] returned a remaining activity at 0.0167 µM of 19%, a remaining activity at 0.0333 µM of 10.7% and a remaining activity at 0.1667 µM of 2.3%.

For the molecule `CC[C@@]1(O)C(=O)OCc2c1cc1n(c2=O)Cc2cc3ccccc3nc2-1` [Camptothecin, camptothecin], in the series on bone marrow, the toxicity entry is listed as “strong inhibition of bone marrow”.

At β-glucuronidase, `O=C(O)[C@H]1O[C@@H](Oc2cc(-c3cc(=O)c4c(O)cc(O)cc4o3)ccc2O)[C@H](O)[C@@H](O)[C@@H]1O` [Luteolin-3'-glucuronide, luteolin-3'-glucuronide] gave a remaining activity at 0.0167 µM of 28.5%, a remaining activity at 0.0333 µM of 13.2% and a remaining activity at 0.1667 µM of 2.1%.

As to `COc1c(O[C@@H]2O[C@H](C(=O)O)[C@@H](O)[C@H](O)[C@H]2O)cc2oc(-c3ccccc3)cc(=O)c2c1O` [Oroxylin A-7-O-glucuronide, oroxylin A-7-O-glucuronide], at β-glucuronidase, the remaining activity at 0.0167 µM turned out to be 31.1%, the remaining activity at 0.0333 µM was 17% and the remaining activity at 0.1667 µM was 3%.
